Results reported in publication PMC3050001 (Science (New York, N.Y.), 2010).

Assays:
[1] = tested on: P. falciparum parasites (Dd2, NITD609-R^Dd2); test: [35S]-Met/Cys incorporation assay; assay type: cell-based, Plasmodium falciparum; conditions: P. falciparum Dd2, within one hour
[2] = tested on: Dd2^attB parasites expressing mutant PfATP4; test: Growth inhibition of transgenic pfatp4 lines
[3] = tested on: drug-selected Dd2 parasites (NITD609-R^Dd2, NITD678-R^Dd2); conditions: for cross-resistance in spiroindolone-selected mutants: NITD609- and NITD678-selected Dd2 mutants
[4] = tested on: synchronized parasites at ring, trophozoite and schizont stages; test: In vitro drug sensitivity assay with synchronized parasites; assay type: cell-based, Plasmodium falciparum
P. berghei = assay type: in vivo, Plasmodium berghei (mice)
[5] = assay type: in vivo, mice and rats
[6] = miniaturized Ames assay
[7] = tested on: panel of human G-protein coupled receptors, enzymes and ion channels
in vivo = conditions: male, rat, po
[8] = tested on: P. vivax clinical isolates; test: Ex vivo sensitivity assay with fresh clinical isolates
[9] = male rats, oral, daily for 14 days
P. falciparum strains = conditions: culture-adapted P. falciparum strains incl. drug-resistant strains
[10] = tested on: P. falciparum clinical isolates; test: Ex vivo sensitivity assay with fresh clinical isolates; conditions: Plasmodium falciparum, in Homo sapiens

C[C@@H]1C[C@@H]([C@H](O)CC2CC(=O)NC(=O)C2)C(=O)[C@@H](C)C1 [cycloheximide]
effect on protein synthesis ([35S]-Met/Cys incorporation) [1]: A similar effect was observed

OC(c1cc(C(F)(F)F)nc2c(C(F)(F)F)cccc12)C1CCCCN1 (stereo not drawn) [Mefloquine]
effect on protein synthesis ([35S]-Met/Cys incorporation) [1]: only showed a nominal decrease
potency against wild-type vs transgenic strains [2]: equivalent potency

C[C@@H]1CC[C@H]2[C@@H](C)C(=O)O[C@@H]3O[C@@]4(C)CC[C@@H]1[C@]32OO4 [artemisinin]
cross-resistance in spiroindolone-selected mutants [3]: None of the selected mutants showed cross-resistance
effect on protein synthesis ([35S]-Met/Cys incorporation) [1]: only showed a nominal decrease
potency against wild-type vs transgenic strains [2]: equivalent potency

C/C=C(/C)C(=O)O[C@H]1C(C)=C2[C@H]([C@@H]1OC(=O)CCCCCCC)[C@@](C)(OC(C)=O)C[C@H](OC(=O)CCC)[C@@]1(O)[C@H]2OC(=O)[C@@]1(C)O [thapsigargin]
cross-resistance in spiroindolone-selected mutants [3]: no cross-resistance

CO[C@H]1O[C@@H]2O[C@@]3(C)CC[C@H]4[C@H](C)CC[C@@H]([C@H]1C)[C@@]24OO3 [Artemether, reference compound]
inhibition of parasite growth ([4]; treatment at 8 nM for 6 hours): Strong inhibition
Survival (P. berghei; 1 × 100 mg/kg oral, control animals 6–7 days): 7.6 days

COc1ccc(C[C@H]2NC[C@H](O)[C@H]2OC(C)=O)cc1 [anisomycin]
effect on protein synthesis ([35S]-Met/Cys incorporation) [1]: A similar effect was observed

C[C@H]1Cc2c([nH]c3cc(Cl)c(F)cc23)[C@@]2(N1)C(=O)Nc1ccc(Cl)cc12 [NITD609]
volume of distribution ([5]; mice and rats, oral and intravenous administration): moderate
bioavailability ([5]; orally administered): excellent
half-life ([5]; orally administered): long
oral absorption ([5]; orally administered): well absorbed
intrinsic mutagenic activity [6]: lacked intrinsic mutagenic activity
binding to off-target panel [7]: no significant binding
AUC(0-t) (in vivo): 29400 to 56500 ng·h/mL
IC50 ([3]; Plasmodium falciparum, DD2, read-out: mean IC50 of drug-selected parasites): 3 to 11 nM
IC50 ([8]; Plasmodium vivax, in Homo sapiens): < 10 nM
logD (physchem; pH 7.4): 4.6
pKa (physchem; pKa^2): 10.7
adverse events / histopathological findings [9]: no adverse events or significant histopathological findings were observed
IC50 (P. falciparum strains): 0.5 to 1.4 nM
IC50 [10]: < 10 nM
sensitivity of parasite blood stages ([4]; high concentration, ≈100 × IC50 value): all stages (rings, trophozoites and schizonts) were similarly sensitive
sensitivity of parasite blood stages ([4]; low concentrations, ≈1 or 10 × IC50 value): schizonts were the most susceptible
effect on protein synthesis ([35S]-Met/Cys incorporation) [1]: effectively blocked protein synthesis
ED90 (P. berghei; oral, P. berghei mouse model): 2.7 mg/kg

CC(=O)C1=C(O)[C@@H]2[C@H]3c4c[nH]c5cccc(c45)C[C@H]3C(C)(C)N2C1=O [cyclopiazonic acid]
cross-resistance in spiroindolone-selected mutants [3]: no cross-resistance

CCN(CC)CCCC(C)Nc1ccnc2cc(Cl)ccc12 (stereo not drawn) [Chloroquine, reference compound]
stage-specific sensitivity (ring vs trophozoite) ([8]; P. vivax, drug exposure 20 h, growth determined after 42 hours): significant stage-specific sensitivity
